Assay results from PubChem BioAssay AID1963978 (Molecular Pharmacology Branch, DTP, NCI, 2024).
Where “and” joins values, the source holds several entries; their conditions need not be identical. Identical values can stand only once.

Test system: 616215-338-R-J1-PDC spheroids with HUVEC/MSC, viability
Test: Anticancer human tumor 616215-338-R-J1-PDC patient-derived colon adenocarcinoma cell line growth inhibition [PI3K]
Conditions: for viability, T/C: stronger effect = lower value
How it was run: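 Tumor cells were combined with HUVEC and MSCs into spheroids, then dosed with PI3K-inhibitor combinations over half-log ranges capped near clinical Cmax or 10 microM.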

[1] = curve of first compound, second compound 0.00316 µM
[2] = curve of first compound, second compound 0.01 µM
[3] = curve of first compound, second compound 0.0316 µM
[4] = curve of first compound, second compound 0.1 µM
[5] = curve of first compound, second compound 0.316 µM
[6] = curve of first compound, second compound 1 µM
[7] = second compound 0.00316 µM, first compound 0.0316 µM
[8] = second compound 0.00316 µM, first compound 0.1 µM
[9] = second compound 0.01 µM, first compound 0.0316 µM
[10] = second compound 0.01 µM, first compound 0.1 µM
[11] = second compound 0.0316 µM, first compound 0.0316 µM
[12] = second compound 0.0316 µM, first compound 0.1 µM
[13] = second compound 0.0316 µM, first compound 0.316 µM
[14] = second compound 0.0316 µM, first compound 1 µM
[15] = second compound 0.0316 µM, first compound 3.16 µM
[16] = second compound 0.0316 µM, first compound 10 µM
[17] = second compound 0.1 µM, first compound 0.0316 µM
[18] = second compound 0.1 µM, first compound 0.1 µM
[19] = second compound 0.1 µM, first compound 0.316 µM
[20] = second compound 0.1 µM, first compound 1 µM
[21] = second compound 0.1 µM, first compound 3.16 µM
[22] = second compound 0.1 µM, first compound 10 µM
[23] = second compound 0.316 µM, first compound 0.0316 µM
[24] = second compound 0.316 µM, first compound 0.1 µM
[25] = second compound 0.316 µM, first compound 0.316 µM
[26] = second compound 0.316 µM, first compound 1 µM
[27] = second compound 0.316 µM, first compound 3.16 µM
[28] = second compound 0.316 µM, first compound 10 µM
[29] = second compound 1 µM, first compound 0.0316 µM
[30] = second compound 1 µM, first compound 0.1 µM
[31] = second compound 1 µM, first compound 0.316 µM
[32] = second compound 1 µM, first compound 1 µM
[33] = second compound 1 µM, first compound 3.16 µM
[34] = second compound 1 µM, first compound 10 µM
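Further: spheroids exposed to agents for seven days before the viability read.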

CNC(=O)c1ccc(N2C(=S)N(c3ccc(C#N)c(C(F)(F)F)c3)C(=O)C2(C)C)cc1F + CC(Nc1ccc2c(c1)OCCn1cc(N3C(=O)OCC3C(F)F)nc1-2)C(N)=O
IC50 [1]: > 10000 nM
IC50 [2]: > 10000 nM
IC50 [3]: > 10000 nM
IC50 [4]: > 10000 nM
IC50 [5]: > 10000 nM
IC50 [6]: > 10000 nM
viability, T/C [7]: 102%
viability, T/C [8]: 89.1%
viability, T/C (second compound 0.00316 µM, first compound 0.316 µM): 101%
viability, T/C (second compound 0.00316 µM, first compound 1 µM): 94.5%
viability, T/C (second compound 0.00316 µM, first compound 3.16 µM): 112%
viability, T/C (second compound 0.00316 µM, first compound 10 µM): 100%
viability, T/C [9]: 94.7%
viability, T/C [10]: 101%
viability, T/C (second compound 0.01 µM, first compound 0.316 µM): 98.3%
viability, T/C (second compound 0.01 µM, first compound 1 µM): 105%
viability, T/C (second compound 0.01 µM, first compound 3.16 µM): 99.7%
viability, T/C (second compound 0.01 µM, first compound 10 µM): 95%
viability, T/C [11]: 105%
viability, T/C [12]: 94%
viability, T/C [13]: 102%
viability, T/C [14]: 97.9%
viability, T/C [15]: 99.8%
viability, T/C [16]: 102%
viability, T/C [17]: 102%
viability, T/C [18]: 87.2%
viability, T/C [19]: 110%
viability, T/C [20]: 97.7%
viability, T/C [21]: 96.2%
viability, T/C [22]: 108%
viability, T/C [23]: 95%
viability, T/C [24]: 113%
viability, T/C [25]: 107%
viability, T/C [26]: 102%
viability, T/C [27]: 102%
viability, T/C [28]: 94.5%
viability, T/C [29]: 104%
viability, T/C [30]: 94.2%
viability, T/C [31]: 102%
viability, T/C [32]: 104%
viability, T/C [33]: 104%
viability, T/C [34]: 86.7%

CC(C)n1nc(-c2ccc3oc(N)nc3c2)c2c(N)ncnc21 + CC(Nc1ccc2c(c1)OCCn1cc(N3C(=O)OCC3C(F)F)nc1-2)C(N)=O
IC50 [1]: > 100 nM
IC50 [2]: > 100 nM
IC50 [3]: > 100 nM
IC50 [4]: > 100 nM
IC50 [5]: > 100 nM
IC50 [6]: 93.2 nM
viability, T/C (second compound 0.00316 µM, first compound 0.000316 µM): 92.2%
viability, T/C (second compound 0.00316 µM, first compound 0.001 µM): 90.5%
viability, T/C (second compound 0.00316 µM, first compound 0.00316 µM): 87.2%
viability, T/C (second compound 0.00316 µM, first compound 0.01 µM): 114%
viability, T/C [7]: 99.2%
viability, T/C [8]: 91.5%
viability, T/C (second compound 0.01 µM, first compound 0.000316 µM): 93%
viability, T/C (second compound 0.01 µM, first compound 0.001 µM): 102%
viability, T/C (second compound 0.01 µM, first compound 0.00316 µM): 111%
viability, T/C (second compound 0.01 µM, first compound 0.01 µM): 112%
viability, T/C [9]: 113%
viability, T/C [10]: 102%
viability, T/C (second compound 0.0316 µM, first compound 0.000316 µM): 100%
viability, T/C (second compound 0.0316 µM, first compound 0.001 µM): 95.3%
viability, T/C (second compound 0.0316 µM, first compound 0.00316 µM): 103%
viability, T/C (second compound 0.0316 µM, first compound 0.01 µM): 118%
viability, T/C [11]: 108%
viability, T/C [12]: 82.1%
viability, T/C (second compound 0.1 µM, first compound 0.000316 µM): 110%
viability, T/C (second compound 0.1 µM, first compound 0.001 µM): 95.3%
viability, T/C (second compound 0.1 µM, first compound 0.00316 µM): 100%
viability, T/C (second compound 0.1 µM, first compound 0.01 µM): 110%
viability, T/C [17]: 117%
viability, T/C [18]: 81.5%
viability, T/C (second compound 0.316 µM, first compound 0.000316 µM): 96.6%
viability, T/C (second compound 0.316 µM, first compound 0.001 µM): 95.8%
viability, T/C (second compound 0.316 µM, first compound 0.00316 µM): 98.8%
viability, T/C (second compound 0.316 µM, first compound 0.01 µM): 110%
viability, T/C [23]: 94.6%
viability, T/C [24]: 76.2%
viability, T/C (second compound 1 µM, first compound 0.000316 µM): 102%
viability, T/C (second compound 1 µM, first compound 0.001 µM): 118%
viability, T/C (second compound 1 µM, first compound 0.00316 µM): 106%
viability, T/C (second compound 1 µM, first compound 0.01 µM): 96.7%
viability, T/C [29]: 86.6%
viability, T/C [30]: 47.4%

CNC(=O)c1ccc(N2C(=S)N(c3ccc(C#N)c(C(F)(F)F)c3)C(=O)C2(C)C)cc1F
viability, T/C (compound 0.0316 µM): 100% [middle of 4 runs]
viability, T/C (compound 0.1 µM): 102% [middle of 4 runs]
viability, T/C (compound 0.316 µM): 100% [middle of 4 runs]
viability, T/C (compound 1 µM): 93.9% and 100% and 102%
viability, T/C (compound 3.16 µM): 101% [middle of 4 runs]
viability, T/C (compound 10 µM): 104% [middle of 4 runs]
IC50 (curve of compound): > 10000 nM

CC(=O)c1c(C)c2cnc(Nc3ccc(N4CCNCC4)cn3)nc2n(C2CCCC2)c1=O
viability, T/C (compound 0.000316 µM): 96.5% [middle of 4 runs]
viability, T/C (compound 0.001 µM): 98.8% [middle of 4 runs]
viability, T/C (compound 0.00316 µM): 98.5% [middle of 4 runs]
viability, T/C (compound 0.01 µM): 112% [middle of 4 runs]
viability, T/C (compound 0.0316 µM): 97.5% [middle of 4 runs]
viability, T/C (compound 0.1 µM): 115% [middle of 4 runs]
IC50 (curve of compound): > 100 nM

Cn1nccc1Nc1nccc(-c2ccn(C(CO)c3ccc(Cl)c(F)c3)c(=O)c2)n1 (stereo not given) + Cc1nc(NC(=O)N2CCCC2C(N)=O)sc1-c1ccnc(C(C)(C)C(F)(F)F)c1
IC50 [3]: 3460 nM
IC50 [4]: 2980 nM
IC50 [5]: 2270 nM
IC50 [6]: 1580 nM
IC50 (curve of first compound, second compound 3.16 µM): 739 nM
IC50 (curve of first compound, second compound 10 µM): 552 nM
viability, T/C [11]: 106%
viability, T/C [12]: 81.5%
viability, T/C [13]: 83.8%
viability, T/C [14]: 68.9%
viability, T/C [15]: 47.8%
viability, T/C [16]: 37.1%
viability, T/C [17]: 97.2%
viability, T/C [18]: 97.9%
viability, T/C [19]: 86.2%
viability, T/C [20]: 58.3%
viability, T/C [21]: 56.6%
viability, T/C [22]: 33.1%
viability, T/C [23]: 96.7%
viability, T/C [24]: 86%
viability, T/C [25]: 87.6%
viability, T/C [26]: 72.1%
viability, T/C [27]: 40.7%
viability, T/C [28]: 29.1%
viability, T/C [29]: 92.4%
viability, T/C [30]: 97.8%
viability, T/C [31]: 67.8%
viability, T/C [32]: 57.7%
viability, T/C [33]: 42.1%
viability, T/C [34]: 26.8%
viability, T/C (second compound 3.16 µM, first compound 0.0316 µM): 96%
viability, T/C (second compound 3.16 µM, first compound 0.1 µM): 89.3%
viability, T/C (second compound 3.16 µM, first compound 0.316 µM): 68%
viability, T/C (second compound 3.16 µM, first compound 1 µM): 39.3%
viability, T/C (second compound 3.16 µM, first compound 3.16 µM): 32.4%
viability, T/C (second compound 3.16 µM, first compound 10 µM): 13.9%
viability, T/C (second compound 10 µM, first compound 0.0316 µM): 94.2%
viability, T/C (second compound 10 µM, first compound 0.1 µM): 83.9%
viability, T/C (second compound 10 µM, first compound 0.316 µM): 70.2%
viability, T/C (second compound 10 µM, first compound 1 µM): 29.7%
viability, T/C (second compound 10 µM, first compound 3.16 µM): 5.53%
viability, T/C (second compound 10 µM, first compound 10 µM): 1.47%
